Experimental data taken from US20250250298A1, “ONCOLYTIC PEPTIDE AND USE THEREOF” (Rise Biopharmaceuticals Inc., priority 2022, published 2025).
Where a SMILES comes first, the peptide text is derived from it.

Assays:
[1] = system: HUVEC (Human Umbilical Vein Endothelial (Cell)); experiment: MTT cytotoxicity, HUVEC; assay type: cell-based; conditions: 24 hours incubation
Description: (§1) The MTT assay is a colorimetric method for measuring the activity of enzymes in living cells that reduces Thiazolyl blue tetrazolium bromide (MTT) to formazan dyes showing a purple color. In this embodiment, a colorimetric 3-(4.5-dimethylthiazol-2-yl)-2.5-diphenyltetrazodium bromide (MTT) viability assay was used to assess the in vitro cytotoxicity of oncolytic peptides.
(§2) The half inhibition concentration (IC50) is the concentration required by the oncolytic peptides to reach fifty percent inhibition. In one embodiment, the oncolytic peptides were used for IC50 test via MTT colorimetric assay.
(§3) All cancer cell lines were seeded in a 96-well plate with a concentration of 5000-8000 cells/100 μl/well and incubated for 24 hrs. After medium was removed, 100 μl fresh medium containing peptide (ranging from 50 μM to 0.8 μM) was added to the wells. Following 24 hours incubation, fresh medium with MTT (0.5 mg/ml) was replaced and incubated for 3 hours. After medium/MTT was removed, DMSO was added at 100 μl for dissolving the formazan crystal. Cell survival rate was calculated by measuring the absorbance at 540 nm using a Multi-labeled Microplate Reader (Sunrise™, TECAN).

[2] = system: PC9 (Human non-small cell lung cancer cell); experiment: MTT cytotoxicity, PC9; assay type: cell-based; conditions: PC9, 24 hours incubation
Description: as §1, §2
(§4) Human lung cancer lines PC9 and A549 and murine pancreatic cancer cell line Panc02 were cultured in RPMI medium supplemented with 10% fetal bovine serum and antibiotic in this embodiment. Additionally, murine hepatoma cell line Hepa 1-6, murine melanoma cell line B16-F10, murine fibrosarcoma cell line MN-11, murine mammary cancer cell line E0771 and human diploid fibroblast (HFW) were cultured in DMEM medium supplemented with 10% fetal bovine serum and antibiotic. Cells were cultured in a humidified incubator containing 5% CO2 at 37° C.
as §3

[3] = system: MN-11 (Murine fibrosarcoma); experiment: MTT cytotoxicity, MN-11; assay type: cell-based; conditions: MN-11, 24 hours incubation
Description: as §1, §2, §4, §3

[4] = system: HepG2 Cancer Cells (Human hepatocellular carcinoma); experiment: MTT cytotoxicity, HepG2; assay type: cell-based; conditions: HepG2, 24 hours incubation
Description: as §1, §2, §3

HFW (Human fibroblast) = experiment: MTT cytotoxicity, HFW; assay type: cell-based; conditions: 24 hours incubation
Description: as §1, §2, §4, §3

B16-F10 melanoma = assay type: in vivo; conditions: B16-F10 tumor-bearing C57BL/6 mice
Protocol: FIGS. 1A-1B are schematic diagrams of B16-F10 melanoma experiments. The right flank of the mouse was administrated with SEQ ID NO:9, and the left flank of the mouse was untreated (tumor only) in FIG. 1A. […] (3×10^6B16-F10 cells per mouse/50 μl RPMI-1640). Palpable tumors (20-30 mm^3) were injected […] (IT.) with single doses of SEQ ID NO:9 dissolved in PBS (1.0 mg peptide/50 μl PBS) once a day for 5 consecutive days, and the vehicle control was saline only (0.9% NaCl).
(§5) Female C57BL/6 mice (4- to 6-week old) as allogeneic model animals were purchased from BioLASCO Taiwan Co., Ltd. and maintained in a specific pathogen-free and controlled environment. During the experiments, female mice, weighing 18.0-24.0 g each, were kept in groups of 4 to 6 animals per cage under climate-controlled conditions, with 12 h light/dark cycles and an ambient temperature. The mice were housed in an enriched individually ventilated cage (IVC) system with free access to standard rodent chow and water ad libitum. The animals were anesthetized during the experimental procedures with 2.5% isoflurane gas. The animals were monitored daily. All procedures were conducted according to the regulations of Laboratory Animal Care and Use Committee or Group Setup and Management and the law of Animal Protection.
Palpable tumors (for example, 20-30 mm^3 for B16-F10 tumor-bearing mice, 100 mm^3 for MN-11 tumor-bearing mice, 75 mm^3 for E0771 tumor-bearing mice) were injected (IT.) with single doses of SEQ ID NO:9 dissolved in PBS (1.0 mg peptide/50 μl PBS) once a day for 5 consecutive days, and the vehicle control was saline only (0.9% NaCl).
Tumor size was measured 3 times a week using a caliper, and the volume of tumors was calculated using the following formula: Tumor size (mm^3)=0.5×(width^2×length). The results were shown as volume±SEM. The survival rates of tumor-bearing mice were observed and recorded continuously until all animals died.
To evaluate the effect of SEQ ID NO:9 in vivo, the B16-F10 allogeneic model was used in C57BL/6 mice (FIGS. 1A-1B). […]

RBC (Human blood cell) = experiment: Cytotoxicity, RBC; assay type: cell-based
Description: as §2

MN-11 fibrosarcoma = assay type: in vivo; conditions: MN-11 tumor-bearing C57BL/6 mice
Protocol: FIGS. 4A-4B are schematic diagrams of MN-11 fibrosarcoma experiments. FIG. 4A: The right flank of the mouse was administrated with SEQ ID NO:9, and the left flank of the mouse was untreated (tumor only). […] Palpable tumors (100 mm^3) were injected (IT.) with single doses of SEQ ID NO:9 dissolved in PBS (1.0 mg peptide/50 μl PBS) once a day for 5 consecutive days, and the vehicle control was saline only (0.9% NaCl).
as §5, with “All procedures were conducted according to the regulations of Laboratory Animal Care and Use Committee or Group Setup and Management and the law of Animal Protection.” left out
Tumor size was measured 3 times a week using a caliper, and the volume of tumors was calculated using the following formula: Tumor size (mm^3)=0.5×(width^2×length). […] The survival rates of tumor-bearing mice were observed and recorded continuously until all animals died. […]

[5] = system: Hepa I-6 (Murine hepatocellular carcinoma); experiment: MTT cytotoxicity, Hepa 1-6; assay type: cell-based; conditions: Hepa I-6, 24 hours incubation
Description: as §1, §2, §4, §3

[6] = system: A375 (human malignant melanoma); experiment: MTT cytotoxicity, A375; assay type: cell-based; conditions: A375, 24 hours incubation
Description: as §1, §2, §3

[7] = IT. 1.0 mg once a day for 5 days, vs untreated controls
[8] = IT. 1.0 mg peptide/50 μl PBS once a day for 5 consecutive days, vs saline control

CC(C)C[C@H](NC(=O)[C@H](Cc1ccc2ccccc2c1)NC(=O)[C@H](CCCCN)NC(=O)[C@H](CC(C)C)NC(=O)[C@H](Cc1c[nH]c2ccccc12)NC(=O)[C@H](CCCCN)NC(=O)[C@H](CCCNC(=N)N)NC(=O)[C@H](Cc1c[nH]c2ccccc12)NC(=O)[C@H](CCCNC(=N)N)NC(=O)[C@H](CCCNC(=N)N)NC(=O)[C@H](CCCCN)NC(=O)[C@H](CCCCN)NC(=O)[C@H](CCCCN)NC(=O)[C@@H](N)CCCCN)C(=O)N[C@@H](C)C(=O)N[C@@H](CCCCN)C(N)=O [SEQ ID NO: 9, KKKK-RR-WRK-WLK-Nal-LA-K-NH2] (HELM PEPTIDE1{K.K.K.K.R.R.W.R.K.W.L.K.[O=C([C@H](Cc1ccc2ccccc2c1)N[*:1])[*:2]].L.A.K.[am]}$$$$V2.0; N-terminus assumed)
IC50 [1]: 6.32 µM | IC50 [2]: 3.02 µM | IC50 [3]: 2.9 µM | IC50 [4]: 9.81 µM | IC50 (HFW (Human fibroblast)): 3.38 µM | Survival (lifespan) (B16-F10 melanoma; [7]): extended the lifespan | Tumor growth, treated tumor (right flank) (B16-F10 melanoma; [8]): significantly inhibited tumor growth | Tumor growth, distal tumor (left side) (B16-F10 melanoma; untreated left flank, peptide IT. into right flank 1.0 mg once a day for 5 days): also inhibited | IC50 (RBC (Human blood cell)): 25.7 µM | Survival (lifespan) (MN-11 fibrosarcoma; [7]): extended the lifespan | Tumor growth, treated tumor (right side) (MN-11 fibrosarcoma; [8]): significantly inhibited unilateral (right side) tumor growth | IC50 [5]: 1.69 µM | IC50 [6]: 3.84 µM
